Source: article PMC3842914, “Meleagrin, a New FabI Inhibitor from Penicillium chryosogenum with at Least One Additional Mode of Action” (PLoS ONE, 2013)
Converted amounts (≈) assume the structure as drawn. Read-outs that look alike come from different tables or passages of the source.

Legend:
[1] = tested on: incorporation of leucine into proteins in S. aureus; assay: [14C] leucine incorporation into proteins in S. aureus; assay type: cell-based; settings: Staphylococcus aureus
Description: (§1) To monitor the effects of compound 1 on lipid, DNA, RNA, protein, and cell wall biosynthesis, its effects on the incorporation of [1-^14C] acetate (50 mCi/mmol), [2-^14C] thymidine (59.8 mCi/mmol), [U-^14C] uridine (539 mCi/mmol), L-[U-^14C] leucine (306 mCi/mmol) or L-[U-^14C] isoleucine (329 mCi/mmol), and N-acetyl-D-[1-^14C] glucosamine (58.1 mCi/mmol) into S. aureus and S. pneumoniae were measured as described previously. S. aureus was exponentially grown to an A650 of 0.2 in Mueller–Hinton broth. S. pneumoniae was grown in tryptic soy broth supplemented with 5% sheep blood. […] An equal volume of DMSO solvent was added to the untreated control. After incubation with the radiolabeled precursors at 37°C for 1 h, followed by centrifugation, the cell pellets were washed twice with PBS buffer. After acetate incorporation, the total cellular lipids were extracted with chloroform-methanol-water. The incorporated radioactivity in the chloroform phase was measured by scintillation counting. For the other precursors, incorporation was terminated by adding 10% (w/v) TCA and cooling on ice for 20 min. The precipitated material was collected on Whatman GF/C glass microfiber filters, washed with TCA and ethanol, dried, and counted using a scintillation counter. The total counts incorporated at 1 h of incubation without inhibitors ranged from >7,000 for [U-^14C] uridine to <13,000 for [1-^14C] acetate. […] In all experiments, known antibacterial agents were included as positive controls.
We measured their effects on the incorporation of [1-^14C] acetate into membrane fatty acids in S. aureus. […] In contrast, the incorporation of leucine into proteins was not inhibited by the active compounds (Table 1), whereas the protein synthesis inhibitor, chloramphenicol, inhibited incorporation (data not shown).

[2] = tested on: incorporation of [1-14C] acetate into membrane fatty acids in S. aureus; assay: [14C] acetate incorporation into membrane fatty acids in S. aureus; assay type: cell-based, Staphylococcus aureus; settings: for IC50: Staphylococcus aureus, read-out: IC50 [14C] acetate incorporation; for Inhibition of acetate incorporation relative to the less active compounds 1, 3, and 4: [1-14C] acetate into membrane fatty acids in S. aureus
Description: as §1, with “counter.” for “counter. The total counts incorporated at 1 h of incubation without inhibitors ranged from >7,000 for [U-^14C] uridine to <13,000 for [1-^14C] acetate.”
We measured their effects on the incorporation of [1-^14C] acetate into membrane fatty acids in S. aureus.

[3] = tested on: E. coli EW1b; assay: Overexpression assay, MIC for pump-negative (tolC) E. coli EW1b; assay type: cell-based; settings: Escherichia coli
Description: (§2) Whole-cell antimicrobial activity was determined by broth microdilution as described previously. The test strains except for S. pneumoniae were grown to mid-log phase in Mueller–Hinton broth and diluted 1,000-fold in the same medium. Cells (10^5/mL) were inoculated into Mueller–Hinton broth and dispensed at 0.2 mL/well into a 96-well microtiter plate. S. pneumoniae was grown in tryptic soy broth supplemented with 5% sheep blood. MICs were determined in triplicate by serial 2-fold dilutions of test compounds. […] Bacterial growth was determined by measuring the absorption at 650 nm by using a microtiter ELISA reader.
(§3) An overexpression assay using S. aureus RN4220, S. aureus RN4220 (pE194), and S. aureus RN4220 (pE194-fabI) was conducted to perform target validation of FabI inhibitors as described previously. Additionally, both fabI- and fabK-overexpressing E. coli were constructed to test a multitarget effect of the compounds. The wild-type fabI gene from the genomic DNA of E. coli W3110 was amplified by PCR by using the primers 5′-[…]-3′ and 5′-[…]-3′. The wild-type fabK gene from the genomic DNA of S. pneumoniae KCTC 5412 was amplified by PCR by using the primers 5′-[…]-3′ and 5′-[…] […]-3′. The resulting products were cloned into the pBAD-TOPO TA expression vector (Invitrogen, Carlsbad, CA, USA) to yield the pBAD-fabI and pBAD-fabK recombinant plasmids, which placed the expression of the genes fabI and fabK, respectively, under the control of the arabinose promoter. Recombinant pBAD-fabI and pBAD-fabK were then introduced into the pump-negative (tolC) E. coli EW1b via electroporation to generate E. coli EW1b (pBAD-fabI) and E. coli EW1b (pBAD-fabK), respectively.

[4] = tested on: E. coli EW1b(pBAD); assay: Overexpression assay, MIC for vector-containing E. coli EW1b (pBAD); assay type: cell-based; settings: Escherichia coli
Description: as §2, §3

[5] = tested on: E. coli EW1b(pBAD-fabI); assay: Overexpression assay, MIC for fabI-overexpressing E. coli EW1b (pBAD-fabI); assay type: cell-based; settings: for MIC: Escherichia coli; for MIC for fabI-overexpressing E. coli relative to wild-type and vector-containing E. coli: E. coli EW1b (pBAD-fabI) vs E. coli EW1b and E. coli EW1b (pBAD), in the presence of arabinose
Description: as §2, §3

[6] = tested on: S. aureus KCTC 1916; assay: MIC, S. aureus KCTC 1916; assay type: cell-based; settings: Staphylococcus aureus, KCTC1916
Description: as §2

[7] = target: T1, S. aureus FabI (Staphylococcus aureus, UniProt Q6GI75); assay: Fluorescence quenching assay (direct binding); settings: increasing amounts of compound; FabI fluorescence at 307 nm
T1 construct: made in house
T1 sequence (Q6GI75 1-256): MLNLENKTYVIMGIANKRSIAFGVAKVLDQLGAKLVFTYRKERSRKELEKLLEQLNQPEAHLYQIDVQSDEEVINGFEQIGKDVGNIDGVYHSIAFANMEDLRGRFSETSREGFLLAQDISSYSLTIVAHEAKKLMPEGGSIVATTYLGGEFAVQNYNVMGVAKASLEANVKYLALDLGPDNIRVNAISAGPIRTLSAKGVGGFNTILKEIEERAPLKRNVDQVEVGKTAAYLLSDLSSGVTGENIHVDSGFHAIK
Description: Fluorescence spectra were measured using a SHIMADZU fluorescence spectrophotometer (model RF-5310PC). […] Protein quenching was monitored at 25°C by using 5-nm excitation and 5-nm emission wavelength. The excitation wavelength was 280 nm, and the emission spectra were measured between 290 and 430 nm.

[8] = read-out: MIC E. coli EW1b (+) Ara
[9] = read-out: MIC E. coli EW1b (−) Ara
[10] = read-out: MIC E. coli EW1b(pBAD) (+) Ara
[11] = read-out: MIC E. coli EW1b(pBAD) (−) Ara
[12] = read-out: MIC E. coli EW1b(pBAD-fabI) (+) Ara
[13] = read-out: MIC E. coli EW1b(pBAD-fabI) (−) Ara

| Compound | IC50 [1] [µM] | IC50 [2] [µM] | Inhibition of acetate incorporation relative to the less active compounds 1, 3, and 4 [2] | MIC [3, 8] [µg/mL] | MIC [3, 9] [µg/mL] | MIC [4, 10] [µg/mL] | MIC [4, 11] [µg/mL] | MIC [5, 12] [µg/mL] | MIC [5, 13] [µg/mL] | MIC [6] [µg/mL] | Fluorescence quenching of S. aureus FabI [7] | MIC for fabI-overexpressing E. coli relative to wild-type and vector-containing E. coli [5] [fold] | MIC ([6]; S. aureus KCTC 1916, read-out: MIC) [µg/mL] |
| --- | --- | --- | --- | --- | --- | --- | --- | --- | --- | --- | --- | --- | --- |
| C=CC(C)(C)C12C=C(OC)C(=O)N3/C(=C/c4cnc[nH]4)C(=O)N(C)C31Nc1ccccc12 (stereo not shown) [Compound 6, O,N^14-dimethylglandicolin] | > 200 | 19.8 | approximately 2 fold | – | – | – | – | – | – | – | – | – | – |
| C=CC(C)(C)C12C=C(OC)C(=O)N3/C(=C/c4cnc[nH]4)C(=O)NC31N(OC)c1ccccc12 (stereo not shown) [Compound 3, oxaline] | > 200 | 33.5 | – | – | – | – | – | – | – | – | – | – | – |
| Oc1cc(Cl)ccc1Oc1ccc(Cl)cc1Cl [Triclosan, reference compound] | > 10 | 0.04 | – | 0.002 (≈ 0.00691 µM) | 0.002 (≈ 0.00691 µM) | 0.002 (≈ 0.00691 µM) | 0.002 (≈ 0.00691 µM) | > 0.08 | 0.002 (≈ 0.00691 µM) | 0.01 (≈ 0.0345 µM) | resulted in fluorescence quenching | – | – |
| C=CC(C)(C)C12C=C(O)C(=O)N3/C(=C/c4cnc[nH]4)C(=O)NC31Nc1c(Br)cccc12 (stereo not shown) [Compound 7] | > 200 | > 200 | – | – | – | – | – | – | – | – | did not exhibit such an effect | – | – |
| C=CC(C)(C)C12C=C(OC)C(=O)N3/C(=C/c4cnc[nH]4)C(=O)N(C)C31N(OC)c1ccccc12 (stereo not shown) [Compound 5, O,N^14-dimethylmeleagrin] | > 200 | 16.3 | approximately 2 fold | 16 (≈ 34.7 µM) | 16 (≈ 34.7 µM) | 16 (≈ 34.7 µM) | 16 (≈ 34.7 µM) | 64 (≈ 139 µM) | 16 (≈ 34.7 µM) | – | fluorescence intensity decreased gradually | 4 | 16 (≈ 34.7 µM) |
| C=CC(C)(C)C12C=C(O)C(=O)N3/C(=C/c4cnc[nH]4)C(=O)N(C)C31N(OC)c1ccccc12 (stereo not shown) [Compound 4, N^14-methylmeleagrin] | > 200 | 35.7 | – | – | – | – | – | – | – | – | – | – | – |
| C=CC(C)(C)C12C=C(O)C(=O)N3/C(=C/c4cnc[nH]4)C(=O)NC31N(OC)c1ccccc12 (stereo not shown) [Compound 1, meleagrin] | > 200 | 40.3 | – | 32 (≈ 73.8 µM) | 32 (≈ 73.8 µM) | 32 (≈ 73.8 µM) | 32 (≈ 73.8 µM) | 128 (≈ 295 µM) | 32 (≈ 73.8 µM) | 32 (≈ 73.8 µM) | same pattern as compound 5 | 4 | – |
